# Data from US8834910B2, “Sustained release dispenser comprising two or more sex pheromone substances” (Shin-Etsu Chemical Co., Ltd., priority 2003, dated 2014).
# Test: Vapor pressure by the gas flow method (OECD guideline)
# Type: physicochemical
# Conditions: head: 20° C.; text: gas flow method at 25° C.
# Protocol: Chemical structure, relation with a target insect and carbon number of each component are listed in the pest control of the pear and peach in Japan. The vapor pressure was measured by the gas flow method at 25° C. according to the “Addendum to the OECD chemical test guideline, issues 7 and 8” (Adopted on Jul. 27, 1995).
row,Vapor pressure (20° C.) (Pa),SMILES
1,0.186,CCC(C)CCCCCCCCCOC(C)=O (stereo not drawn) [10-methyldodecyl acetate]
2,0.246,C=CCCCCCCCCCCOC(C)=O [11-dodecenyl acetate]
3,0.980,CCC/C=C\CCCCCCCO [Z-8-dodecene-1-ol]
4,0.267,CCC/C=C\CCCCCCCOC(C)=O [Z-8-dodecenyl acetate]
5,0.267,CC/C=C\CCCCCCCCOC(C)=O [Z-9-dodecenyl acetate]
6,0.100,CCCC/C=C\CCCCCCCCOC(C)=O [Z-9-tetradecenyl acetate]
7,0.070,CC/C=C\CCCCCCCCCCO [Z-11-tetradecene-1-ol]
8,0.100,CC/C=C\CCCCCCCCCCOC(C)=O [Z-11-tetradecenyl acetate]
9,0.005,CCCCCC/C=C\CCC(=O)CCCCCCCCC [Z-13-icosen-10-one]
